Blank lines part the entries; values can stand above or below the molecule they belong to.
Key:
Assay type in all cases: physicochemical
calf thymus DNA [1] = experiment: UV spectroscopy of spermine or SC2 particles at raised NaCl concentration; settings: 76 µM DNA bases; for absorption at 330 nm as compared to the maximum optical density at 25 mM NaCl: 65 mM SC2
Description: The characterisation of the formed particles by UV spectroscopy was performed for different reasons. DNA in solution has a characteristic absorption spectrum between 240 and 310 nm. The absorption (optical density) has a maximum at 260 nm and 0 towards 310 nm. A change in DNA conformation should change the profile of the absorption spectrum. Moreover, the formation of particles results in an enhancement of the diffusion which can be perceived in UV by an enhancement of optical density.
Calf thymus DNA was complexed with spermine under conditions optimal for obtaining toroid structures as described by Naroditsky et al. (76 µM DNA bases, 65 mM spermine, 25 mM NaCl).

calf thymus DNA [2] = experiment: Determination of thiol functions of SC2 with Ellman's reagent during DNA complexation; settings: after 10 min, no oxygen except that in the water
[3] = Determination of the critical micelle concentration (c.m.c.) with a Langmuir balance, without DNA; settings: for CMC / CMC without DNA: MES buffer 20 mM pH 6 containing 10 mM DTT; for c.m.c.: n-alkyl esters of cysteine by chain length, Langmuir balance, 20 mM MES buffer, pH 6
Description: Clean monomolecular DNA collapse is generally expected only for detergent concentrations below the critical micelle concentration (c.m.c.). Several n-alkyl esters of cysteine were synthesized by DMAP-catalyzed dicyclohexylcarbodiimide (DCC) dehydration and their c.m.c.'s were determined with a Langmuir balance (20 mM MES buffer, pH 6), providing the following results (n-alkyl chain length / c.m.c.): dodecane / 15 µM; undecane / 80 µM; decane / 320 µM; octane /> 2000 µM. Typical working plasmid concentrations for gene delivery experiments being in the 50 µM range, the decane chain is a safe choice. The weakly basic nature of the cysteine ester primary amine function (pKa= 6.8) is insufficient for simultaneous DNA binding (which requires a protonated detergent) and reasonable thiol oxidation rates in slightly basic medium. The amine function was therefore converted into a highly basic guanidine which is known to interact strongly with DNA (C10 -CG+, Fig. 2).
(§1) i) c.m.c. of a detergent with C8, C10, C11 and C12 cysteine Measurement of the c.m.c. was acomplished with a Langmuir balance in a MES buffer (20 mM pH 6) containing 10 mM DTT. When representing the surface tension as a logarithmic function of the detergent concentration a break at the c.m.c. was observed (Fig. 10). Applying this method c.m.c.'s of the compounds having different chain length (C8, C10, C11, C12) were determined.

pCMV-luc plasmid DNA = experiment: Agarose gel electrophoresis: physical and chemical stability of the complexes; settings: 1% agarose gel, 40 mM Tris-acetate buffer pH 8
Description: In a series of experiments, the reversibility of complex formation as well as the stability of complexed DNA towards degradation were assessed by electrophoresis (Fig. 5). […] Yet the cationic lipid/DNA particles could be destroyed either with excess sodium dodecyl sulfate detergent (SDS, lane 3) or by converting the lipid back to the original C10 -CG+ detergent with excess reducing dithiothreitol (DTT, lane 4). Serum nucleases present in cell culture medium rapidly degrade supercoiled plasmid DNA (lanes 1 and 8) into a smear of fragments with many nicks (lane 5).
1% agarose gel electrophoresis (90 min at 8 V/cm in 40 mM Tris-acetate buffer pH 8) of 20 µl samples containing 0.4 µg (lanes 1-4) or 0.2 µg (lanes 5-8) pCMV-luc plasmid DNA. Complexes were made by addition of a 100-fold concentrated C10 -C^G+ detergent solution (90 µM final concentration) to a solution of plasmid (60 µM) in HEPES buffer (15 mM, pH 7.4). The solution was gently mixed once and left to oxydize for 24 h. Lane 1: 60 µM plasmid DNA. Lane 2: 60 µM oxydized (C10 -C^G+)2/DNA complexes. Lane 3: as lane 2 in 3 mM final sodium dodecylsulfate before loading. Lane 4: as lane 2 in 6 mM dithiothreitol before loading. Lane 5: 60 µM plasmid incubated for 1 h at 37 °C with an equivalent volume of DMEM cell culture medium containing 10% serum. Lane 6: 60p µ M oxydized (C10 -C^G+)2/DNA complexes incubated as lane 5. […]

pCMVluc plasmid DNA = experiment: Oxidation rate of cysteine detergent into cystine lipid (free thiol, Ellman's reagent) with and without template DNA; settings: 90 µM detergent, TrisHCl 15 mM pH 8.4 saturated with oxygen, with 60 µM plasmid DNA versus without
Description: Oxidative detergent dimerization was expected to be prone to a template effect of DNA (Fig. 1). Fast intra-complex reaction is a key aspect to formation of small and stable particles since extensive detergent dimerization into lipid prior to DNA binding would bring the system back to a classical cationic lipid/DNA complex formation/aggregation process. Enhanced air oxidation rate was indeed observed in the presence of DNA (Fig. 3).
The stock buffer solution (TrisHCl 15 mM pH 8.4) was saturated with oxygen by three vacuum/oxygen atmosphere cycles. C10 -C^G+ was injected from a concentrated stock solution to a final concentration of 90 µM. For each time point, a 0.5 ml aliquot was removed and mixed with 0.5 ml 2XEllman's reagent. The remaining free thiol was quantitated spectrophotometrically according to Riddles et al. (1979 ). For the template experiment, pCMVluc plasmid DNA was added to a final concentration of 60 µM before addition of the detergent.

calf thymus DNA [4] = experiment: Determination of the c.m.c. with a Langmuir balance, buffer containing DNA; settings: buffer containing calf thymus DNA at 30 µM bp
Description: as §1
ii) c.m.c. of C10 and C11 cysteine with and without DNA. In an analogous manner as above the c.m.c. value of C10 cysteine and C11 cysteine was determined, the buffer containing calf thymus DNA at a concentration of 30 µM bp (Fig. 11A, B).

Structure (SMILES): NC(CS)C(=O)NCCCNCCCCNCCCNC(=O)C(N)CS (stereo not drawn) [SC2, spermine-N1, N12-bis-cysteineamide]
absorption at 330 nm as compared to the maximum optical density at 25 mM NaCl (calf thymus DNA [1]; at 100 mM NaCl, raised one and a half hours after mixing): 81%
absorption at 330 nm as compared to the maximum optical density at 25 mM NaCl (calf thymus DNA [1]; at 150 mM NaCl): 71%
thiol groups oxydised (calf thymus DNA [2]): 50%

Structure (SMILES): CCCCCCCCCCNC(=O)C(CS)NC(=N)N (stereo not drawn) [C10 -CG+, Guanidyl-cysteine-decylamide]
DNA migration / stability during electrophoresis (pCMV-luc plasmid DNA): unable to retard DNA migration
oxydation rate into cystine lipid (pCMVluc plasmid DNA): faster in the presence of template DNA

Structure (SMILES): NCCCNCCCCNCCCN [spermine, reference compound]
observed UV spectrum after raising NaCl (calf thymus DNA [1]; NaCl raised to 100 mM, 65 mM spermine): identical with the spectrum of the DNA that had been observed before complexation with spermine

Further lines, results first:

CMC [3]: > 2000 µM
c.m.c. [3]: > 2000 µM
Structure (SMILES): CCCCCCCCOC(=O)[C@@H](N)CS [C8]

CMC [3]: 15 µM
c.m.c. [3]: 15 µM
Structure (SMILES): CCCCCCCCCCCCOC(=O)[C@@H](N)CS [C12]

CMC [3]: 80 µM
CMC without DNA [3]: 80 µM
c.m.c. [3]: 80 µM
CMC with DNA (calf thymus DNA [4]): 32 µM
Structure (SMILES): CCCCCCCCCCCOC(=O)[C@@H](N)CS [C11]

CMC [3]: 320 µM
CMC without DNA [3]: 320 µM
c.m.c. [3]: 320 µM
CMC with DNA (calf thymus DNA [4]): 50 µM
Structure (SMILES): CCCCCCCCCCOC(=O)[C@@H](N)CS [C10]
